How the values were obtained:
MES-SA [1] = assay: Cytotoxicity in triple coculture, MES-SA mCherry; type: cell-based, human; conditions: Homo sapiens, MES-SA/B1, MES-SA/Dx5, 144 h
Description: (§1) Cell lines were purchased from the American Type Culture Collection (ATCC). MES-SA/B1 is a human MDR1-transfected derivative of MES-SA, and MES-SA mCherry, MES-SA/B1 mOrange, and MES-SA/Dx5 eGFP were engineered to stably express the respective fluorescent proteins previously.[62] Cells were kept in culture medium (DMEM) supplemented with 10% fetal bovine serum, 2 mM L-glutamine, 100 units/mL penicillin, and 100 μg/mL streptomycin (Thermo Fisher). One week before use, MES-SA/Dx5 eGFP cells were treated with 0.5 μM doxorubicin to ensure ABCB1/P-gp expression.
(§2) The tested compounds were dissolved in 50% (v/v) DMSO/PBS’ buffer to prepare 5–10 mM stock solutions, which were diluted in complete culture medium. Constitutive expression of the fluorescent proteins allowed multiplexing in cytotoxicity experiments.[62] Cells were mixed before seeding in 384-well plates: in double cocultures, MES-SA mCherry and MES-SA/Dx5 eGFP cells were seeded at 1250–1250 cells/well (in total 2500 cells/well); while in triple cocultures, MES-SA mCherry, MES-SA/Dx5 eGFP and MES-SA/B1 mOrange cells were seeded at 800–800–800 cells/well (in total 2400 cells/well). Serial dilutions of the compounds were added 24 h after seeding. To address the effect of P-gp function, TQ was added at a nontoxic concentration (0.4 μM) 15 min before the test compounds. The intensity of the fluorescent proteins, which is proportional to cell mass, was measured after 144 h of incubation at the respective fluorescent channels (excitation/emission: eGFP: 485 nm/510 nm; mOrange: 545 nm/567 nm; mCherry: 585 nm/610 nm). pIC50 values were calculated by a custom program written by Judit Sessler in C#.[62] IC50 values and standard deviation were calculated from average pIC50 values from at least 3 independent measurements.

MES-SA/Dx5 [2] = assay: Cytotoxicity in triple coculture, MES-SA/Dx5 eGFP; type: cell-based, human
Description: as §1, §2

MES-SA/B1 = assay: Cytotoxicity in triple coculture, MES-SA/B1 mOrange; type: cell-based, human
Description: as §1, §2

[3] = n-octanol/water distribution coefficient (shake-flask); type: physicochemical; conditions: pH 7.4, […]
Description: The exchange of the coligand (H2O/Cl^–) changes the overall charge of the complex, thus affecting lipophilicity. […] The traditional shake-flask method was used to obtain distribution coefficients of the ligands as well as of the complexes in n-octanol/buffered aqueous solution (20 mM phosphate, pH = 7.4) at different chloride ion concentrations (4, 24, and 100 mM) using UV–vis spectrophotometry (Agilent Cary 8454 diode array spectrophotometer, Santa Clara, CA, USA) for the analysis. The compounds were dissolved in buffered aqueous solutions previously saturated with n-octanol. Then the aqueous and n-octanol phases were gently mixed in different volume ratios (using 1:60 for the ligands, 1:1 for the RhCp* and 1:2 for the RuCym complexes ratios of n-octanol to buffered aqueous solution volume) for 4 h, followed by phase separation. Then the UV–vis spectrum of the aqueous or n-octanol phase was recorded and compared to the reference spectrum. Stock solutions were made in the aqueous phase, and distribution coefficients (DpH) were calculated by the following equation: [drawing 3]

[4] = pKa of in situ prepared complexes by UV–vis titration; type: physicochemical; conditions: 1:1 system, absence of chloride, I = 0.20 M KNO3
Excerpt: The UV–vis spectra of the complexes prepared in situ were then followed at different pH values in the absence of chloride ions. No spectral changes were observed between pH = 2–6.3 (RuCym) or 7.5 (RhCp*), indicating high solution stability in both cases; however, the changes were significant in the basic pH range (Figure S22). In the case of RuCym complexes, two overlapping processes associated with the deprotonation of the coordinated water molecule and the noncoordinated Npyr/pipH^+ moiety were observed. […] The pKa values determined for these processes are shown in Table 2 and Figure S23 together with the values obtained for complexes formed with the amino acid hybrids HQCl-D-Pro and HQCl-D-hPro (Chart 2) for comparison.[26]
An Agilent Cary 8454 diode array spectrophotometer was utilized to obtain UV–vis spectra in the wavelength range 190–1100 nm. The path length (l) was 1 or 2 cm in most cases (the actual l is always indicated in the legends of the figures). The concentrations of the ligands and complexes were between 36 and 100 μM. The ligands were titrated in the presence of 10 equiv of EDTA. Individual samples contained 0–37 μM HSA, 0–206 μM MIM, 0–759 μM AHA, or 0–733 μM FHA. Spectra were always background and baseline corrected. The computer program HypSpec[64] was used to obtain stability constants.

[5] = pKa of in situ prepared complexes by pH-potentiometry; type: physicochemical; conditions: I = 0.20 M KNO3
Excerpt: The results, shown in Table 2, indicate good agreement between the data obtained by the different methods. It should be noted that these processes show overlap in all cases, and therefore, the assignment of the pKa values to the given moieties cannot be made reliably. However, by comparing the spectral changes with those observed for HQ and other simple derivatives,[25] it can be concluded that the lower pKa likely belongs to the deprotonation of the aqua coligand.
The pH-potentiometric measurements were carried out at 25.0 ± 0.1 °C in water in the pH range between 2.0 and 11.5 and at a constant ionic strength of 0.20 M KNO3. The titrations were performed in a carbonate-free KOH solution (0.20 M). The exact concentrations of the HNO3 and KOH solutions were determined by pH-potentiometric titrations. An Orion 710A pH-meter equipped with a Metrohm combined electrode (type 6.0234.100) and a Metrohm 665 Dosimat buret were used for this purpose. […] The average water ionization constant, pKw, was determined as 13.76 ± 0.01, which is in good agreement with the literature data.[67] The initial volume of the samples was 10.0 mL. […] Samples were degassed by bubbling purified argon through them for about 10 min prior to the measurements, and the inert gas was also passed over the solutions during the titrations. The computer program Hyperquad2013[64] was utilized to establish the stoichiometry of the species and to calculate the equilibrium constants.

[6] = H2O/Cl– coligand exchange by UV–vis titration with chloride ions; type: physicochemical
Description: When the isolated complexes (1–4) are dissolved in water, their chlorido coligand can be replaced by water, or vice versa in the aqua complexes [M(arene)(HL)(H2O)]^2+, the H2O → Cl^– exchange process can take place in the presence of chloride ions. The chloride ion affinity of the complexes was also investigated by UV–vis spectrophotometry. RhCp* and RuCym complexes were titrated with chloride ions at pH 7.4 and 6.0, respectively. For this experiment, pH values were chosen at which the formation of the mixed hydroxido species is negligible. A representative spectrum series for complex (4) is shown in Figure S27, and the calculated conditional exchange constants (logK’ (H2O/Cl^–)) are given in Table 2 and in Figure S23. […] The complexes of the amino acid hybrids HQCl-D-Pro and HQCl-D-hPro have lower logK’ (H2O/Cl^–) constants most likely due to the repulsive effect of the nearby COO^– group.[26]

[7] = tested on: Escherichia coli (ATCC 25922); assay: Antibacterial MIC, E. coli; type: cell-based; conditions: Mueller Hinton Broth, 37 °C, 18 h
Description: (§3) Escherichia coli (ATCC 25922) was used as Gram-negative strain and Staphylococcus aureus (ATCC 25923, methicillin-resistant (MRSA) ATCC 43300) strains were applied as Gram-positive bacterial cultures in the experiments. MIC values of the compounds were determined in 96-well plates based on the Clinical and Laboratory Standard Institute guidelines (CLSI guidelines).[76] The stock solutions of the compounds (same as those used for cytotoxicity experiments) were diluted in 100 μL of Mueller Hinton Broth. Then, 10^–4 dilution of an overnight bacterial culture in 100 μL of medium was added to each well, with the exception of the medium control wells.

[8] = tested on: Staphylococcus aureus (ATCC 25923); assay: Antibacterial MIC, S. aureus; type: cell-based; conditions: Mueller Hinton Broth, 37 °C, 18 h
Description: as §3

[9] = tested on: methicillin-resistant S. aureus (MRSA) ATCC 43300; assay: Antibacterial MIC, MRSA; type: cell-based, Staphylococcus aureus; conditions: Mueller Hinton Broth, 37 °C, 18 h
Description: as §3

[10] = target: human serum albumin (HSA), Trp214 / site I (Homo sapiens, UniProt P02768); assay: HSA Trp214 fluorescence quenching; conditions: 1 μM HSA; λEX = 295 nm (Trp-214); pH 7.4 (PBS’); […]; 24 h
Chain of human serum albumin (HSA), Trp214 / site I (P02768 25-609): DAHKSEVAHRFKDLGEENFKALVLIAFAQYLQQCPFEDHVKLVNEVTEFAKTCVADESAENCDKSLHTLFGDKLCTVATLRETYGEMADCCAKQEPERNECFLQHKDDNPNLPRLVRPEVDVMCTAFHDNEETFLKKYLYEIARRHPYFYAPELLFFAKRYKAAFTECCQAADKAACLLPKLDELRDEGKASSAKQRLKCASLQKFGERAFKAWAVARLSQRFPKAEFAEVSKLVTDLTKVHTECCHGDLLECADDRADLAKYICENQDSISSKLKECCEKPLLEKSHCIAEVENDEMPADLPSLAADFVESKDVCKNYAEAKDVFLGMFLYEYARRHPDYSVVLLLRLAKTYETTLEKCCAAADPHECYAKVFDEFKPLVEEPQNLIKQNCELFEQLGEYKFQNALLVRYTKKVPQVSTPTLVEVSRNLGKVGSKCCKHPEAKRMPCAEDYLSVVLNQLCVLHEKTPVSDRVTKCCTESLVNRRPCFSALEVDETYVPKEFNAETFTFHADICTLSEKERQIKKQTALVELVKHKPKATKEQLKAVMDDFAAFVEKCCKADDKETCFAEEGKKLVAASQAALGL
Description: (§4) Next, spectrofluorometric measurements were also performed to gain insight into the binding interactions that may occur in the hydrophobic binding sites of HSA. Tryptophan (Trp214) quenching experiments were conducted for the complexes (1–4) (for complex (3) see Figure S31) and their ligands). […] To monitor the binding at site II, site marker displacement experiments were performed using dansylglycine (DG).
(§5) Fluorescence measurements were carried out on a Fluoromax (Horiba Jobin Yvon, Longjumeau, France) spectrofluorometer using a 1 cm × 1 cm quartz cuvette. […] Excitation wavelengths were 295 nm for Trp-214 quenching and 340 nm for the DG displacement studies. The calculated conditional stability constants for HSA–complex species were obtained using the computer program HypSpec.[64] Calculations always were based on data obtained from at least two independent measurements.

[11] = target: human serum albumin (HSA), site II (Homo sapiens, UniProt P02768); assay: HSA dansylglycine (DG) site marker displacement; conditions: cHSA = cDG = 1 μM; λEX = 335 nm (DG); pH 7.4 (PBS’); […]; 24 h
Chain of human serum albumin (HSA), site II (P02768 25-609): as above
Description: as §4, §5

MES-SA [12] = assay: Cytotoxicity in double coculture, MES-SA mCherry; conditions: read-out: IC50 MES-SA; double coculture with MES-SA/Dx5; 144 h; without TQ
Description: (§6) Therefore, the novel half-sandwich complexes (1–4) and their corresponding ligands were tested against a coculture of MES-SA and MES-SA/Dx5 cells expressing the fluorescent proteins mCherry or eGFP, respectively.[62]
(§7) The tested compounds were dissolved in 50% (v/v) DMSO/PBS’ buffer to prepare 5–10 mM stock solutions, which were diluted in complete culture medium. Constitutive expression of the fluorescent proteins allowed multiplexing in cytotoxicity experiments.[62] […] Serial dilutions of the compounds were added 24 h after seeding. To address the effect of P-gp function, TQ was added at a nontoxic concentration (0.4 μM) 15 min before the test compounds. […] IC50 values and standard deviation were calculated from average pIC50 values from at least 3 independent measurements.

MES-SA/Dx5 [13] = assay: Cytotoxicity in double coculture, MES-SA/Dx5 eGFP; conditions: for SR = IC50 (MES-SA)/IC50 (MES-SA/Dx5): double coculture; for IC50: read-out: IC50 MES-SA/Dx5, double coculture with MES-SA, 144 h
Description: as §6, §7

[14] = Ligand displacement with 2,2′-bipyridine, conditional formation constant; type: physicochemical; conditions: pH 7.4; bpy competitor; UV–vis
Excerpt: These pKa (H2O) values are lower than those of the complexes formed with the corresponding amino acid hybrids (HQCl-D-Pro, HQCl-D-hPro, Figure S23). Thus, the predominant complex at pH 7.4 is [M(arene)(HL)(H2O)]^2+ in all cases, in which the bidentate ligand coordinates via the (N,O^–) donor set and the pyridinium or pyrrolidinium nitrogens are protonated just like in the isolated complexes (Chart 3). Based on the unchanged spectra (vide supra), these types of complexes show no dissociation at pH = 2, indicating their high stability and hindering the direct determination of the formation constants. Therefore, a ligand displacement experiment was performed using UV–vis spectrophotometry with 2,2′-bipyridine (bpy) as a competitor to determine conditional formation constants at pH = 7.4 (Figure S25). […] Nevertheless, these values indicate a high stability of the complexes in solution, and <1% of dissociation is estimated at 1 μM concentration at pH = 7.4. The ligand displacement measurement could not be applied to the RuCym complexes due to the release of the p-cymene ring followed by the formation of the mixed ligand complex with bpy and oxidation of the metal center (Figure S26), similarly to analogue complexes.[14],[26],[27]

Compound | logD7.4 ([3]; c(Cl–) = 4 mM) | logD7.4 ([3]; c(Cl–) = 24 mM) | logD7.4 ([3]; c(Cl–) = 100 mM) | pKa (H2O) [5] | pKa (Npyr/pipH+) [5] | MIC [7] | MIC [8] | MIC [9] | logK’(quenching) [10] | logK’(DG) [11] | IC50 (MES-SA [12]) | SR = IC50 (MES-SA)/IC50 (MES-SA/Dx5) (MES-SA/Dx5 [13]; + 0.4 μM tariquidar (TQ)) | SR = IC50 (MES-SA)/IC50 (MES-SA/Dx5) (MES-SA/Dx5 [13]; without TQ) | IC50 (MES-SA/Dx5 [13]; without TQ) | other results
COc1cc([C@@H]2c3cc4c(cc3[C@@H](O[C@@H]3O[C@@H]5CO[C@@H](C)O[C@H]5[C@H](O)[C@H]3O)[C@H]3COC(=O)[C@H]23)OCO4)cc(OC)c1O [etoposide] | – | – | – | – | – | – | – | – | – | – | – | – | – | – | IC50 (MES-SA [1]): 260 nM; SR Dx5 = IC50 (MES-SA)/IC50 (MES-SA/Dx5) (MES-SA/Dx5 [2]): 0.15; IC50 (MES-SA/Dx5 [2]; Homo sapiens, MES-SA/Dx5, 144 h): 1700 nM; SR B1 = IC50 (MES-SA)/IC50 (MES-SA/B1) (MES-SA/B1): 0.22
[RuCym(HQCl-Pyr)Cl]Cl [(2)] | –0.12 ± 0.02 | +0.23 ± 0.03 | +0.46 ± 0.02 | 8.47 ± 0.04 | 10.40 ± 0.03 | > 100 µM | > 100 µM | > 100 µM | 5.3 ± 0.2 | 5.2 ± 0.1 | 8970 nM | 0.1 | 3.2 | 2780 nM | pKa (H2O) [4]: 8.42 ± 0.03; pKa (Npyr/pipH+) [4]: 10.32 ± 0.03; logK’ (H2O/Cl–) ([6]; RuCym complexes titrated at pH 6.0): 1.60 ± 0.07
Cc1c(C)c(C)[c-](C)c1C.[Cl-].[Cl-].[O-]c1c(C[NH+]2CCCC2)cc(Cl)c2cccnc12.[Rh+3] [(1), [RhCp*(HQCl-Pyr)Cl]Cl] | –0.11 ± 0.01 | +0.12 ± 0.01 | +0.22 ± 0.01 | 9.35 ± 0.03 | 10.47 ± 0.03 | 50 µM | 50 µM | 50 µM | 5.1 ± 0.1 | 5.0 ± 0.1 | 2970 nM | 1.3 | 16.0 | 190 nM | logK’ (H2O/Cl–) ([6]; RhCp* complexes titrated at pH 7.4): 2.23 ± 0.02; logK’ [M(arene)L]7.4 conditional formation constant [14]: 12.06 ± 0.02

From article PMC11653257, “Organometallic Half-Sandwich Complexes of 8-Hydroxyquinoline-Derived Mannich Bases with Enhanced Solubility: Targeting Multidrug Resistant Cancer” (Inorganic Chemistry, 2024)
